Measurements taken from patent US20150011394A1 (priority 2012, published 2015).
Like-named read-outs stand apart in the source and are kept apart here.

What was measured:
Burkholderia glumae [1] = type: in vivo
Burkholderia glumae [2] = settings: rice, 150 g ai/ha, 1 spray, 29 days after the 1st spray
[3] = rice at harvest, 150 g ai/ha, 2 sprays

SMILES | final yield increase (Burkholderia glumae [1]; rice, harvest trial, Isotianil treated plots) | % efficacy (Abbott), Burkholderia glumae incidence on panicles (Burkholderia glumae [2]) | Yield (% of untreated) (Burkholderia glumae [1]; [3]) | Yield T/ha (Burkholderia glumae [1]; [3]) | % efficacy (Abbott), Burkholderia glumae incidence on panicles (Burkholderia glumae [1]; rice, 150 g ai/ha, 2 sprays, 44 days after the 2nd spray)
N#Cc1ccccc1NC(=O)c1snc(Cl)c1Cl [Isotianil, isotianil] | about 20% |  |  |  | 
CCC1(C(=O)N[C@H](C)c2ccc(Cl)cc2)C(C)C1(Cl)Cl (some centres unmarked) [CARPROPAMID] |  | 36% | 108% | 9.06 T/ha | 43%
